One may read the pIC50 as the negative decadic logarithm of the IC50, by convention in mol/L. For orientation: pEC50 means the negative decadic logarithm of the EC50, by convention in mol/L. A high value points to a low EC50.

Consider 11 compounds from ChEMBL document CHEMBL5223100, “Homobivalent, Trivalent, and Covalent PROTACs: Emerging Strategies for Protein Degradation” (J Med Chem, 2022).

pEC50, pIC50: −log10 of the molar value.

A short description of assay [1]: Induction of hRpn13Pru degradation in human RPMI-8226 cells. Format: cell-based.
Assay [2] relates to RPMI-8226. Kind of assay: Antiproliferative activity against human RPMI-8226 cells. It counts as functional, cell-based.
The test system of assay [3] is RPMI-8226. As to the kind of experiment: Induction of hRpn13Pru degradation in human RPMI-8226 cells assessed as maximum degradation at 50 uM relative to control. It counts as cell-based.
Assay [4] addresses Cyclin-dependent kinase 9 (Homo sapiens) (UniProt P50750). Kind of assay: Induction of CDK9 degradation in human MOLT-4 cells assessed as maximum degradation after 16 hrs relative to control. Format: cell-based.
Assay [5] deals with CWR22R. Kind of assay: Antiproliferative activity against human 22Rv1 cells after 72 hrs. It counts as functional, cell-based. As to conditions: 22Rv1, 72 h.
The subject of assay [6] is PC-3. Kind of assay: Antiproliferative activity against human PC-3 cells after 72 hrs. Format: functional, cell-based. As to conditions: PC-3, 72 h.
The target of assay [7] is Serine/threonine-protein kinase Sgk3 (Homo sapiens) (UniProt Q96BR1). Kind of assay: Induction of SGK3 degradation in HEK293 cells assessed as maximum degradation at 300 nM after 48 hrs relative to control. Format: cell-based.
Assay [8] concerns the target Serine/threonine-protein kinase Sgk3 (Homo sapiens, UniProt Q96BR1). Kind of assay: Induction of SGK3 degradation in HEK293 cells. Format: cell-based.
Assay [9] addresses T1, Phosphatidylinositol 3-kinase catalytic subunit type 3 (Homo sapiens, UniProt Q8NEB9). Kind of assay: Induction of VPS34 degradation in HEK293 cells assessed as maximum degradation after 30 mins relative to control. It counts as cell-based.
In assay [10] the target is T1, Phosphatidylinositol 3-kinase catalytic subunit type 3. As to the kind of experiment: Induction of VPS34 degradation in HEK293 cells assessed as maximum degradation at 300 nM after 48 hrs relative to control. It counts as cell-based.
For assay [11] the target is unchanged. Kind of assay: Induction of VPS34 degradation in HEK293 cells. It counts as cell-based.
For assay [12], the target named is Serine/threonine-protein kinase Sgk3 (Homo sapiens) (UniProt Q96BR1). As to the kind of experiment: Induction of SGK3 degradation in HEK293 cells assessed as maximum degradation after 30 mins relative to control. It counts as cell-based.
Assay [13] has as its target E3 ubiquitin-protein ligase RNF114 (Homo sapiens, UniProt Q9Y508). Kind of assay: Binding affinity to RNF114 (unknown origin).
Assay [14] addresses Hepatitis C virus serine protease, NS3/NS4A (Hepatitis C virus, UniProt A3EZI9+D2K2A8). Kind of assay: Inhibition of HCV NS3/4a protease in Huh7.5 SGR cells using [Ac-DE-D(Edans)-EE-Abu-[COO]AS-K(Dabcyl)-NH2] as substrate preincubated for 15 mins followed by substrate addition and incubated for 1 hr by FRET assay. It counts as cell-based, Hepacivirus hominis.
Assay [15] has as its system Hepatitis C virus. Kind of assay: Antiviral activity against wild type HCV. It counts as functional, organism-based, Hepacivirus hominis.
Assay [16] deals with Hepatitis C virus. Kind of assay: Antiviral activity against HCV harboring NS3 V55A mutant. Format: functional, organism-based, Hepacivirus hominis.
Assay [17] can be described thus: Induction of HCV NS3 degradation after 4 hrs. More on the design: species or system Hepacivirus hominis.
In assay [18] the target is Protein cereblon (Homo sapiens, UniProt Q96SW2). As to the kind of experiment: Displacement of dBET6 from CRBN (unknown origin) transfected in BRD4 BD2-GFP mCherry report cells incubated for 5 hrs.
Assay [19] relates to NCI-H1975. As to the kind of experiment: Antiproliferative activity against human NCI-H1975 cells harboring EGFR L858R/T790M double mutant. Format: functional, cell-based.
The subject of assay [20] is HCC827. Kind of assay: Antitumor activity against human HCC827 cells xenografted in mouse assessed as tumor growth inhibition at 30 mg/kg. It counts as functional. The settings on record: read-out: TGI. Background: Xenograft models place foreign cells or tissue in a host animal.
The target in assay [21] is von Hippel-Lindau disease tumor suppressor/Epidermal growth factor receptor (Homo sapiens, UniProt P00533+P40337). As to the kind of experiment: Protac activity at VHL/EGFR Del19 mutant in human HCC827 cells. Format: cell-based.
Assay [22] deals with von Hippel-Lindau disease tumor suppressor/Epidermal growth factor receptor (Homo sapiens), P00533+P40337 [UNDEFINED MUTATION]. Kind of assay: Protac activity at VHL/EGFR Del19 mutant in human HCC827 cells assessed as maximum degradation relative to control. It counts as cell-based.
In assay [23] the test system is HCC827. Kind of assay: Antiproliferative activity against human HCC827 cells harboring EGFRDel19 mutant. It counts as functional, cell-based.
The target in assay [24] is Protein fem-1 homolog B (Homo sapiens, UniProt Q9UK73). As to the kind of experiment: Binding affinity to FEM1B (unknown origin).
Assay [25] addresses T2, Bromodomain-containing protein 4 (Homo sapiens, UniProt O60885). Kind of assay: Induction of BRD4 degradation in HEK293 cells after 8 hrs. It counts as cell-based.
In assay [26] the target is T2, Bromodomain-containing protein 4. Kind of assay: Induction of BRD4 degradation in 231MFP cells. Format: cell-based.
For assay [27] the target is unchanged. As to the kind of experiment: Induction of BRD4 degradation in HEK293 cells assessed as maximum degradation after 8 hrs relative to control. Format: cell-based.
Assay [28] relates to HEK293. Kind of assay: Induction of HaloTag7 fused GFP degradation in HEK293 cells assessed as maximum degradation relative to control. Format: cell-based. As to conditions: Homo sapiens.
Assay [29] in a line: Induction of HaloTag7 fused GFP degradation in HEK293 cells. The settings on record: Homo sapiens. It counts as cell-based.
Assay [30] addresses von Hippel-Lindau disease tumor suppressor (Homo sapiens, UniProt P40337). Kind of assay: Binding affinity to VHL (unknown origin).
Assay [31] in a line: Antiproliferative activity against human MINO cells. It counts as functional, cell-based.
Assay [32] concerns the target T3, Tyrosine-protein kinase BTK (Homo sapiens, UniProt Q06187). Kind of assay: Induction of BTK degradation in human MOLM-14 cells. It counts as cell-based.
For assay [33], the target named is T3, Tyrosine-protein kinase BTK. Kind of assay: Induction of BTK degradation in human MOLM-14 cells assessed as maximum degradation at 200 nM relative to control. It counts as cell-based.
Assay [34] concerns MOLM-14. Kind of assay: Antiproliferative activity against human MOLM-14 cells. It counts as functional, cell-based.
In assay [35] the target is T2, Bromodomain-containing protein 4. As to the kind of experiment: Induction of BRD4 short isoform degradation in human 231MFP cells. Format: cell-based.
Assay [36] has the same target. As to the kind of experiment: Induction of BRD4 long isoform degradation in human 231MFP cells. It counts as cell-based.

The compound `Cc1ncsc1-c1ccc([C@H](C)NC(=O)[C@@H]2C[C@@H](O)CN2C(=O)[C@@H](NC(=O)CCCCc2cn(-c3ccc(C(=O)Nc4cccc(/C=C(\C#N)C(=O)Nc5ccccc5C(=O)O)c4)cc3)nn2)C(C)(C)C)cc1` came in with a DC50 in assay [1] of 39 µM. Besides, in assay [2], the negative-log IC50 (pIC50) was 5.38. In addition, the Emax in assay [3] amounted to 80%.
`COc1cc(/C=C/C(=O)N2CCC=CC2=O)cc(OC)c1OCCN1CCN(C(=O)CN2CCC(C(=O)Nc3ncc(SCc4ncc(C(C)(C)C)o4)s3)CC2)CC1`: the Emax in assay [4] turned out to be 96%. Moreover, the figures for the pEC50 in [5] and in [6] were 8.36 and 8.19, respectively.
For the compound `Cc1ncsc1-c1ccc(CNC(=O)[C@@H]2C[C@@H](O)CN2C(=O)[C@@H](NC(=O)C2(C#N)CC2)C(C)(C)C)c(OCCOCCOCCOCCCCCCCl)c1`, the Emax was determined as 95% in assay [7], 50% in assay [9], 95% in [10] and 50% in assay [12]. Besides, the DC50 in assay [8] and in assay [11] was 0.003 µM in each case.
In turn, `COC(=O)C[C@H]1[C@]2(C)C3=C(C)[C@H](c4ccoc4-c4ccc(C(=O)NCCCNC(=O)C[C@@H]5N=C(c6ccc(Cl)cc6)C6C(C)=C(C)SC6n6c(C)nnc65)cc4)C[C@H]3O[C@@H]2C2OC(=O)[C@]3(C)C=CC(=O)[C@@]1(C)[C@@H]23` (stereo partly specified) showed a negative-log IC50 (pIC50) in [13] of 6.62.
As for `CCC[C@H](NC(=O)[C@@H]1[C@H]2CCC[C@H]2CN1C(=O)[C@@H](NC(=O)[C@@H](NC(=O)c1cnc(C(=O)NCCOCCOCCOc2cc3c4c(cccc4c2)C(=O)N(C2CCC(=O)NC2=O)C3=O)cn1)C1CCCCC1)C(C)(C)C)C(=O)C(=O)NC1CC1` (stereo partly specified), the pIC50 is 6.61 in assay [14], 6.25 in [15] and 6.29 in assay [16]. In [17], this compound returned a DC50 of 0.05 µM.
As for `C=CC(=O)N1CCN(c2nc(NCCCN3CCN(CCCNc4cccc5c4C(=O)N(C4CCC(=O)NC4=O)C5=O)CC3)nc3c(F)c(-c4cc(O)cc5ccccc45)c(Cl)cc23)CC1` (stereo unspecified), the negative-log EC50 (pEC50) in assay [18] is 7.10.
With `Cc1ncsc1-c1ccc(CNC(=O)[C@H]2C[C@H](O)CN2C(=O)[C@H](NC(=O)CCCCCCCCCCn2cc(COc3cc4ncnc(Nc5ccc(F)c(Cl)c5)c4cc3NC(=O)/C=C/N3CCCCC3)nn2)C(C)(C)C)cc1`, the pIC50 in [19] was less than 7.70; in [23], 8.22. The inhibition in vivo at 30 mg/kg in assay [20] was determined as 90%. The compound also displayed a DC50 in [21] of 0.00357 µM. The Emax in assay [22] turned out to be 91%.
Turning to `Cc1sc2c(c1C)C(c1ccc(Cl)cc1)=N[C@@H](CC(=O)NCCCCCNC(=O)CN1CCOc3cc(N(CCC#N)C(=O)CCl)ccc31)c1nnc(C)n1-2`, in assay [24], the pIC50 was 5.82. In addition, the results for the DC50 in assay [25] and in assay [26] were 0.25 µM and 0.198 µM, respectively. Further, the Emax in [27] turned out to be 94%.
As to `Cc1ncsc1-c1ccc(CNC(=O)[C@@H]2C[C@@H](O)CN2C(=O)[C@H](C(C)C)N2Cc3ccccc3C2=O)c(OCCOCCOCCOCCCCCCCl)c1`, the Emax in [28] came to 90%. Also, in assay [29], the DC50 worked out at 0.019 µM. Besides, the pIC50 in assay [30] is 6.27.
On to `CN(CCCNC(=O)CNc1cccc2c1C(=O)N(C1CCC(=O)NC1=O)C2=O)C(C)(C)/C=C(\C#N)C(=O)N1CCC[C@@H](n2nc(-c3ccc(Oc4ccccc4)cc3)c3c(N)ncnc32)C1` (stereo partly specified), for which the pIC50 in [31] is 7.10; in assay [34] it was 6.52. Besides, the DC50 in assay [32] stood at 0.0066 µM. Further, the Emax in [33] is 81%.
With `Cc1sc2c(c1C)C(c1ccc(Cl)cc1)=N[C@@H](CC(=O)NCCCCOc1ccc(C3CC(c4ccc(Br)cc4)=NN3C(=O)CCl)cc1)c1nnc(C)n1-2` (stereo partly specified), the DC50 was 0.014 µM in assay [35] and 0.036 µM in [36].
